Measured values from patent publication US20150307938A1, “METHOD TO IDENTIFY A NOVEL CLASS OF IMMUNOLOGIC ADJUVANTS” (Lancell, L.L.C., priority 2011, published 2015).
Marks after values point to notes of the source that are not given here.

Test system: full thickness skin
Assay: Whole genome array of skin gene expression after topical DBP (time course)
Format: in vivo, C57BL/6J mice
Procedure: Mice: C57BL/6J female mice obtained from The Jackson Laboratory were used between 8 and 12 weeks of age.
Treatment: Mice were untreated or treated topically on the dorsal side of each ear with […] of dibutylphthalate (DBP). At the designated time points after treatment, the animals were euthanized and the ears washed with 70% isopropanol. Full thickness skin was obtained from the dorsal side of both ears and placed immediately in liquid nitrogen. The time between euthanasia and placement of both skin samples in liquid nitrogen was less than 1 minute. Each sample for RNA extraction contained two dorsal ear skin samples obtained from a single mouse both of whose ears received the same treatment.
RNA Extraction: While in liquid nitrogen, the skin was pulverized with a motorized mortar and pestle (CryoGrinder), transferred by inversion of the mortar directly into 1.5 ml cryogenic vials (Nalgene) and stored in liquid nitrogen until RNA extraction. Total RNA from both ears was extracted by homogenization (Pro200) in TRIzol Reagent (Invitrogen) with 7.5 μg of RNase-free glycogen added to the mixture, according to the manufacturer's directions. The RNA was purified on a solid phase RNeasy MinElute Cleanup column (Qiagen) and eluted with 17 μL of RNase-free water. The samples were stored at −20° C. until use.
Quantification of RNA: RNA yields were quantified by UV absorption using a NanoDrop NG-1000 spectrophotometer, where 1 AU 260 equals 40 μg RNA/ml. Purity was estimated by the 260 and 280 nm absorbance ratio; values between 1.7 and 2.1 were considered acceptable.
Assessment of RNA Quality: The quality of sample RNA was assessed using a RNA 6000 LABCHIP Kit on an Agilent 2100 Bioanalyzer. The Bioanalyzer determines the integrity/purity of the RNA samples and permits the screening of total and mRNA sample degradation and ribosomal RNA contamination. An RNA 6000 ladder was also loaded on a specified well and used as a reference for data analysis and a built-in quality control measure. The quality and integrity of the RNA was determined through visual inspection of each electropherogram. In general, only samples with a RIN (RNA integrity number) of 7 or greater, as determined by the Bioanalyzer, were used for gene arrays. This quality control analysis was repeated following the labeling procedure to ensure that the probes were efficiently labeled and had the correct size before hybridization to the chips. All samples that were run on genome wide arrays were obtained as independent duplicates from two individual mice.
Microarray Data Interpretation: Gene expression was compared between untreated and treated total RNA samples. “Transition” data, which represent the change in expression level for a given gene, are presented as a “weighted difference.” Changes in gene expression level were considered to be significant when the adjusted p values were less than […]. The “gene expression signature” arbitrarily includes only those genes that were transcribed with a weighted increase of 2.0 or greater, which was sustained over the subsequent time points tested.
The weighted difference is a metric that takes into account both the variability between different time-points and the variability between replicates at the same time-point. The calculations are performed for each time-point transition, i.e., 30 minutes vs. 1 hour, 1 hour vs. 2 hours, etc. There are two steps to the calculation: the calculation of a modified Euclidean difference between the two time-points, and the calculation of the Euclidean difference between the replicates within each time-point. The first measure is an unweighted difference, while the final metric given in the spreadsheet “weights” this difference by taking into account the second measure.
In a Euclidean difference calculation, each data point is considered as a vector in a multi-dimensional space, and the actual straight-line distance between the data points is calculated. […]

CCCCOC(=O)c1ccccc1C(=O)OCCCC [DBP, dibutylphthalate]
% Shared (DBP-induced genes also TLR-induced) (15 min): 64%
DBP Unique genes, number (15 min): 12
TLR-Induced among DBP-induced genes, number (15 min): 21^
DBP-Induced genes (≧2x Increased Expression), number (15 min, early response genes): 33*
Acot5 Change in Gene Expression (Weighted Difference) (15 min to 30 min Transition): 1.225
Akr1c18 Change in Gene Expression (Weighted Difference) (15 min to 30 min Transition): −0.6119
Atp2c2 Change in Gene Expression (Weighted Difference) (15 min to 30 min Transition): 0.1754
Btg2 Change in Gene Expression (Weighted Difference) (15 min to 30 min Transition): 5.994
Ccr4 Change in Gene Expression (Weighted Difference) (15 min to 30 min Transition): −0.287
Cdh10 Change in Gene Expression (Weighted Difference) (15 min to 30 min Transition): 0.1979
Cish Change in Gene Expression (Weighted Difference) (15 min to 30 min Transition): 1.725
Cox17 Change in Gene Expression (Weighted Difference) (15 min to 30 min Transition): −0.6572
Cysltr1 Change in Gene Expression (Weighted Difference) (15 min to 30 min Transition): −1.813
Egr1 Change in Gene Expression (Weighted Difference) (15 min to 30 min Transition): 4.967
Egr2 Change in Gene Expression (Weighted Difference) (15 min to 30 min Transition): 1.229
Frk Change in Gene Expression (Weighted Difference) (15 min to 30 min Transition): −5.361
Gbp8 Change in Gene Expression (Weighted Difference) (15 min to 30 min Transition): 0.5698
Gem Change in Gene Expression (Weighted Difference) (15 min to 30 min Transition): 2.697
Gimap7 Change in Gene Expression (Weighted Difference) (15 min to 30 min Transition): −0.2249
Ier3 Change in Gene Expression (Weighted Difference) (15 min to 30 min Transition): 12.73
Il10ra Change in Gene Expression (Weighted Difference) (15 min to 30 min Transition): 2.226
Jun Change in Gene Expression (Weighted Difference) (15 min to 30 min Transition): 1.717
Junb Change in Gene Expression (Weighted Difference) (15 min to 30 min Transition): 3.924
LOC100046066 Change in Gene Expression (Weighted Difference) (15 min to 30 min Transition): −2.104
Madcam1 Change in Gene Expression (Weighted Difference) (15 min to 30 min Transition): 0.2824
Med17 Change in Gene Expression (Weighted Difference) (15 min to 30 min Transition): −0.2295
Mkks Change in Gene Expression (Weighted Difference) (15 min to 30 min Transition): −2.533
Mndal Change in Gene Expression (Weighted Difference) (15 min to 30 min Transition): 1.805
Myc Change in Gene Expression (Weighted Difference) (15 min to 30 min Transition): 2.987
N6amt2 Change in Gene Expression (Weighted Difference) (15 min to 30 min Transition): −0.7998
Nr4a1 Change in Gene Expression (Weighted Difference) (15 min to 30 min Transition): 5.842
P2ry1 Change in Gene Expression (Weighted Difference) (15 min to 30 min Transition): −2.116
Prf1 Change in Gene Expression (Weighted Difference) (15 min to 30 min Transition): −0.05377
Sik1 Change in Gene Expression (Weighted Difference) (15 min to 30 min Transition): 2.597
Slc39a8 Change in Gene Expression (Weighted Difference) (15 min to 30 min Transition): 25.27
Tmed3 Change in Gene Expression (Weighted Difference) (15 min to 30 min Transition): −0.4993
Zfp36 Change in Gene Expression (Weighted Difference) (15 min to 30 min Transition): 10.7
% Shared (DBP-induced genes also TLR-induced) (30 min): 64%
DBP Unique genes, number (30 min): 107
DBP-Induced genes (≧2x Increased Expression), number (30 min): 297
TLR-Induced among DBP-induced genes, number (30 min): 190^#
Acot5 Change in Gene Expression (Weighted Difference) (30 min to 1 hr Transition): 1.878
Akr1c18 Change in Gene Expression (Weighted Difference) (30 min to 1 hr Transition): 1.114
Atp2c2 Change in Gene Expression (Weighted Difference) (30 min to 1 hr Transition): −0.008704
Btg2 Change in Gene Expression (Weighted Difference) (30 min to 1 hr Transition): 2.926
Ccr4 Change in Gene Expression (Weighted Difference) (30 min to 1 hr Transition): 0.2055
Cdh10 Change in Gene Expression (Weighted Difference) (30 min to 1 hr Transition): 0.2384
Cish Change in Gene Expression (Weighted Difference) (30 min to 1 hr Transition): 1.825
Cox17 Change in Gene Expression (Weighted Difference) (30 min to 1 hr Transition): −0.02512
Cysltr1 Change in Gene Expression (Weighted Difference) (30 min to 1 hr Transition): 0.06681
Egr1 Change in Gene Expression (Weighted Difference) (30 min to 1 hr Transition): 5.495
Egr2 Change in Gene Expression (Weighted Difference) (30 min to 1 hr Transition): 2.326
Frk Change in Gene Expression (Weighted Difference) (30 min to 1 hr Transition): 3.985
Gbp8 Change in Gene Expression (Weighted Difference) (30 min to 1 hr Transition): 0.1048
Gem Change in Gene Expression (Weighted Difference) (30 min to 1 hr Transition): 3.044
Gimap7 Change in Gene Expression (Weighted Difference) (30 min to 1 hr Transition): −0.004049
Ier3 Change in Gene Expression (Weighted Difference) (30 min to 1 hr Transition): 7.145
Il10ra Change in Gene Expression (Weighted Difference) (30 min to 1 hr Transition): 0.6152
Jun Change in Gene Expression (Weighted Difference) (30 min to 1 hr Transition): 0.7234
Junb Change in Gene Expression (Weighted Difference) (30 min to 1 hr Transition): 2.771
LOC100046066 Change in Gene Expression (Weighted Difference) (30 min to 1 hr Transition): 2.144
Madcam1 Change in Gene Expression (Weighted Difference) (30 min to 1 hr Transition): 0.046
Med17 Change in Gene Expression (Weighted Difference) (30 min to 1 hr Transition): 0.06201
Mkks Change in Gene Expression (Weighted Difference) (30 min to 1 hr Transition): 0.2811
Mndal Change in Gene Expression (Weighted Difference) (30 min to 1 hr Transition): 0.3272
Myc Change in Gene Expression (Weighted Difference) (30 min to 1 hr Transition): 1.895
N6amt2 Change in Gene Expression (Weighted Difference) (30 min to 1 hr Transition): 0.0833
Nr4a1 Change in Gene Expression (Weighted Difference) (30 min to 1 hr Transition): 1.556
P2ry1 Change in Gene Expression (Weighted Difference) (30 min to 1 hr Transition): 1.47
Prf1 Change in Gene Expression (Weighted Difference) (30 min to 1 hr Transition): 0.5182
Sik1 Change in Gene Expression (Weighted Difference) (30 min to 1 hr Transition): 0.7241
Slc39a8 Change in Gene Expression (Weighted Difference) (30 min to 1 hr Transition): 2.304
Tmed3 Change in Gene Expression (Weighted Difference) (30 min to 1 hr Transition): −0.1953
Zfp36 Change in Gene Expression (Weighted Difference) (30 min to 1 hr Transition): 2.8
% Shared (DBP-induced genes also TLR-induced) (1 hr): 69%
DBP Unique genes, number (1 hr): 26
DBP-Induced genes (≧2x Increased Expression), number (1 hr): 83
TLR-Induced among DBP-induced genes, number (1 hr): 57^#
Acot5 Change in Gene Expression (Weighted Difference) (1 hr to 2 hr Transition): 12.15
Akr1c18 Change in Gene Expression (Weighted Difference) (1 hr to 2 hr Transition): −0.2471
Atp2c2 Change in Gene Expression (Weighted Difference) (1 hr to 2 hr Transition): 0.331
Btg2 Change in Gene Expression (Weighted Difference) (1 hr to 2 hr Transition): −0.01005
Ccr4 Change in Gene Expression (Weighted Difference) (1 hr to 2 hr Transition): −0.03096
Cdh10 Change in Gene Expression (Weighted Difference) (1 hr to 2 hr Transition): −0.1519
Cish Change in Gene Expression (Weighted Difference) (1 hr to 2 hr Transition): 0.9334
Cox17 Change in Gene Expression (Weighted Difference) (1 hr to 2 hr Transition): 0.1604
Cysltr1 Change in Gene Expression (Weighted Difference) (1 hr to 2 hr Transition): −1.794
Egr1 Change in Gene Expression (Weighted Difference) (1 hr to 2 hr Transition): −0.2127
Egr2 Change in Gene Expression (Weighted Difference) (1 hr to 2 hr Transition): −0.1057
Frk Change in Gene Expression (Weighted Difference) (1 hr to 2 hr Transition): −0.2672
Gbp8 Change in Gene Expression (Weighted Difference) (1 hr to 2 hr Transition): −1.039
Gem Change in Gene Expression (Weighted Difference) (1 hr to 2 hr Transition): 0.6484
Gimap7 Change in Gene Expression (Weighted Difference) (1 hr to 2 hr Transition): 0.1331
Ier3 Change in Gene Expression (Weighted Difference) (1 hr to 2 hr Transition): 0.7786
Il10ra Change in Gene Expression (Weighted Difference) (1 hr to 2 hr Transition): 0.1326
Jun Change in Gene Expression (Weighted Difference) (1 hr to 2 hr Transition): −0.001533
Junb Change in Gene Expression (Weighted Difference) (1 hr to 2 hr Transition): −0.0754
LOC100046066 Change in Gene Expression (Weighted Difference) (1 hr to 2 hr Transition): −0.8577
Madcam1 Change in Gene Expression (Weighted Difference) (1 hr to 2 hr Transition): −0.04597
Med17 Change in Gene Expression (Weighted Difference) (1 hr to 2 hr Transition): 0.1073
Mkks Change in Gene Expression (Weighted Difference) (1 hr to 2 hr Transition): −0.1657
Mndal Change in Gene Expression (Weighted Difference) (1 hr to 2 hr Transition): 0.5733
Myc Change in Gene Expression (Weighted Difference) (1 hr to 2 hr Transition): −0.01449
N6amt2 Change in Gene Expression (Weighted Difference) (1 hr to 2 hr Transition): −0.07791
Nr4a1 Change in Gene Expression (Weighted Difference) (1 hr to 2 hr Transition): −0.4734
P2ry1 Change in Gene Expression (Weighted Difference) (1 hr to 2 hr Transition): −0.5171
Prf1 Change in Gene Expression (Weighted Difference) (1 hr to 2 hr Transition): −0.3117
Sik1 Change in Gene Expression (Weighted Difference) (1 hr to 2 hr Transition): 0.007769
Slc39a8 Change in Gene Expression (Weighted Difference) (1 hr to 2 hr Transition): 1.188
Tmed3 Change in Gene Expression (Weighted Difference) (1 hr to 2 hr Transition): −0.2575
Zfp36 Change in Gene Expression (Weighted Difference) (1 hr to 2 hr Transition): 0.1025
% Shared (DBP-induced genes also TLR-induced) (2 hr): 63%
